The assay addresses AMPK. Description: AMPK activation, enzyme-linked immunosorbent assay. Type of assay: biochemical. The conditions noted are these: EC50 for AMPK activation, ELISA. The method, then:
Compounds were assayed for their ability to activate AMPK using an enzyme-linked immunosorbent assay. Reagents and procedures for measuring AMPK activation are well known and kits for AMPK activation assays are commercially available.
In the case of `COc1ccc(CN2CCC(NC(=O)c3ccc(C(=O)N4CCC(Oc5ccc(F)cc5)CC4)cn3)CC2)cc1` [Compound 161, 5-(4-(4-fluorophenoxy)piperidine-1-carbonyl)-N-(1-(4-methoxybenzyl)piperidin-4-yl)picolinamide], the EC50 is less than 500 nM.

For the compound `O=C(NCc1ccccc1)c1ccc(C(=O)N2CCN(Cc3ccc(F)cc3)CC2)cn1` [Compound 115, N-benzyl-5-(4-(4-fluorobenzyl)piperazine-1-carbonyl)picolinamide], the EC50 is 5000 to 10000 nM.

Compound `COc1ccc(C(=O)C2CCN(C(=O)c3ccc(C(=O)NC4CCN(Cc5ccc(N)cc5)CC4)cn3)CC2)cc1` [Compound 400, N-(1-(4-aminobenzyl)piperidin-4-yl)-6-(4-(4-methoxybenzoyl)piperidine-1-carbonyl)nicotinamide] yielded an EC50 of 1000 to 5000 nM.

`N#Cc1ccc(CN2CCC(NC(=O)c3ccc(C(=O)N4CCN(c5ccc(C#N)cc5)CC4)cn3)CC2)cc1` [Compound 340, N-(1-(4-cyanobenzyl)piperidin-4-yl)-5-(4-(4-cyanophenyl)piperazine-1-carbonyl)picolinamide] gave an EC50 of less than 500 nM.

As to `COc1ccc(C(=O)C2CCN(C(=O)c3ccc(C(=O)N(C)C4CCN(Cc5ccc(C#N)cc5)CC4)cn3)CC2)cc1` [Compound 482, N-(1-(4-cyanobenzyl)piperidin-4-yl)-6-(4-(4-methoxybenzoyl)piperidine-1-carbonyl)-N-methylnicotinamide], the EC50 is less than 500 nM.

The compound `N#Cc1ccc(CN2CCC(C(=O)Nc3ccc(C(=O)N4CCC(C(=O)c5ccc(F)cc5)CC4)cn3)CC2)cc1` [Compound 175, 1-(4-cyanobenzyl)-N-(5-(4-(4-fluorobenzoyl)piperidine-1-carbonyl)pyridin-2-yl)piperidine-4-carboxamide] had an EC50 of less than 500 nM.

The compound `CN(C)C(=O)c1ccc(Oc2ccc(NC(=O)c3ccc(C(=O)N4CCC(C(=O)c5ccc(F)cc5F)CC4)nc3)cn2)cc1` [Compound 481, 6-(4-(2,4-difluorobenzoyl)piperidine-1-carbonyl)-N-(6-(4-(dimethylcarbamoyl)phenoxy)pyridin-3-yl)nicotinamide] came in with an EC50 of less than 500 nM.

`CCOC(=O)c1ccc(OC2CCN(C(=O)c3ccc(C(=O)NC4CCN(Cc5ccc(C#N)cc5)CC4)nc3)CC2)cc1` [Compound 284, ethyl 4-(1-(6-(1-(4-cyanobenzyl)piperidin-4-ylcarbamoyl)nicotinoyl)piperidin-4-yloxy)benzoate] yielded an EC50 of less than 500 nM.

For the compound `COc1ccc(OC2CCN(C(=O)c3ccc(C(=O)NC4CCN(Cc5ccc(C#N)cc5)CC4)cn3)CC2)c(N)c1` [Compound 384, 6-(4-(2-amino-4-methoxyphenoxy)piperidine-1-carbonyl)-N-(1-(4-cyanobenzyl)piperidin-4-yl)nicotinamide], the EC50 was in the range of 500 to 1000 nM.

`COc1ccc(CN2CCC(NC(=O)c3ccc(C(=O)N4CCC(C(=O)c5ccc(F)cc5F)CC4)nc3)CC2)cc1` [Compound 347, 6-(4-(2,4-difluorobenzoyl)piperidine-1-carbonyl)-N-(1-(4-methoxybenzyl)piperidin-4-yl)nicotinamide] displayed an EC50 of less than 500 nM.

In the case of `O=C(NC1CCN(Cc2ccc(F)cc2)CC1)c1ccc(C(=O)N2CCC(C(=O)c3ccc(N4CCCC4)cc3)CC2)nc1` [Compound 381, N-(1-(4-fluorobenzyl)piperidin-4-yl)-6-(4-(4-(pyrrolidin-1-yl)benzoyl)piperidine-1-carbonyl)nicotinamide], the EC50 was less than 500 nM.

As for `N#Cc1ccc(CN2CCC(NC(=O)c3ncc(C(=O)N4CCN(Cc5ccc(F)cc5)CC4)cc3C#CCNC(=O)COCCOCCOCCOCCNC(=O)CCCC[C@@H]3SC[C@@H]4NC(=O)N[C@@H]43)CC2)cc1` [Compound 159, N-(1-(4-cyanobenzyl)piperidin-4-yl)-3-(5,20-dioxo-24-((3aS,4S,6aR)-2-oxohexahydro-1H-thieno[3,4-d]imidazol-4-yl)-7,10,13,16-tetraoxa-4,19-diazatetracos-1-ynyl)-5-(4-(4-fluorobenzyl)piperazine-1-carbonyl)picolinamide], the EC50 lay within 1000 to 5000 nM.

In turn, `N#Cc1ccc(CN2CCC(NC(=O)c3ccc(C(=O)N4CCN(c5ccc(F)cc5)CC4)cn3)CC2)cc1` [Compound 341, N-(1-(4-cyanobenzyl)piperidin-4-yl)-5-(4-(4-fluorophenyl)piperazine-1-carbonyl)picolinamide] gave an EC50 of less than 500 nM.

Regarding `O=C(NC1CCN(Cc2ccc(F)cc2)CC1)c1ccc(C(=O)N2CCC(Oc3ccc(F)cc3)CC2)cn1` [Compound 180, N-(1-(4-fluorobenzyl)piperidin-4-yl)-5-(4-(4-fluorophenoxy)piperidine-1-carbonyl)picolinamide], the EC50 was less than 500 nM.

Consider `COc1ccc(N2CCC(Nc3ccc(C(=O)NC4CCN(Cc5ccc(C#N)cc5)CC4)nc3)CC2)cc1` [Compound 275, N-(1-(4-cyanobenzyl)piperidin-4-yl)-5-(1-(4-methoxyphenyl)piperidin-4-ylamino)picolinamide], for which the EC50 is less than 500 nM.

Compound `COc1ccc(C(=O)C2CCN(C(=O)c3ccc(C(=O)N[C@H]4CC[C@@H](Oc5ccc(F)cc5)CC4)cn3)CC2)cc1` [Compound 316, N-((cis)-4-(4-fluorophenoxy)cyclohexyl)-6-(4-(4-methoxybenzoyl)piperidine-1-carbonyl)nicotinamide] showed a concentration for a half-maximal effect (EC50) of less than 500 nM.

As for `N#Cc1ccc(CN2CCC(NC(=O)c3ccc(C(=O)NCCOc4ccc(F)cc4)cn3)CC2)cc1` [Compound 149, N2-(1-(4-cyanobenzyl)piperidin-4-yl)-N5-(2-(4-fluorophenoxy)ethyl)pyridine-2,5-dicarboxamide], the EC50 was in the range of 500 to 1000 nM.

In the case of `CC(=O)Nc1ccc(OC2CCN(C(=O)c3ccc(C(=O)NC4CCN(Cc5ccc(C#N)cc5)CC4)cn3)CC2)cc1` [Compound 366, 6-(4-(4-acetamidophenoxy)piperidine-1-carbonyl)-N-(1-(4-cyanobenzyl)piperidin-4-yl)nicotinamide], the concentration for a half-maximal effect (EC50) is less than 500 nM.

`N#Cc1ccc(CN2CCC(NC(=O)c3ccc(C(=O)N4CCC(S(=O)(=O)c5ccc(F)cc5)CC4)nc3)CC2)cc1` [Compound 471, N-(1-(4-cyanobenzyl)piperidin-4-yl)-6-(4-(4-fluorophenylsulfonyl)piperidine-1-carbonyl)nicotinamide] registered an EC50 of 1000 to 5000 nM.

For `N#Cc1ccc(CN2CCC(NC(=O)c3ccc(C(=O)N4CCN(c5ccc(S(=O)(=O)C(F)(F)F)cc5)CC4)cn3)CC2)cc1` [Compound 257, N-(1-(4-cyanobenzyl)piperidin-4-yl)-5-(4-(4-(trifluoromethylsulfonyl)phenyl)piperazine-1-carbonyl)picolinamide], the EC50 is less than 500 nM.

`COc1ccc(CN2CCC(NC(=O)c3ccc(C(=O)N4CCC(Oc5ccc(S(C)(=O)=O)cc5)CC4)nc3)CC2)cc1` [Compound 237, N-(1-(4-methoxybenzyl)piperidin-4-yl)-6-(4-(4-(methylsulfonyl)phenoxy)piperidine-1-carbonyl)nicotinamide] returned an EC50 of 1000 to 5000 nM.

In turn, `COc1ccc(CN2CCC(NC(=O)c3ccc(C(=O)N4CCC(Oc5ccc(C#N)cc5)CC4)nc3)CC2)cc1` [Compound 319, 6-(4-(4-cyanophenoxy)piperidine-1-carbonyl)-N-(1-(4-methoxybenzyl)piperidin-4-yl)nicotinamide] came in with an EC50 of less than 500 nM.

In turn, `COc1ccc(OC2CCN(C(=O)c3ccc(C(=O)NC4CCN(Cc5ccc(N6CCCC6)cc5)CC4)nc3)CC2)cc1` [Compound 195, 5-(4-(4-methoxyphenoxy)piperidine-1-carbonyl)-N-(1-(4-(pyrrolidin-1-yl)benzyl)piperidin-4-yl)picolinamide] yielded an EC50 of less than 500 nM.

In the case of `O=C(Nc1ccc(Oc2ccc(F)cc2)nc1)c1ccc(C(=O)N2CCC(C(=O)c3ccc(F)cc3F)CC2)cn1` [Compound 342, 5-(4-(2,4-difluorobenzoyl)piperidine-1-carbonyl)-N-(6-(4-fluorophenoxy)pyridin-3-yl)picolinamide], the EC50 is less than 500 nM.

On to `O=C(NC1CCN(Cc2ccccc2)CC1)c1ccc(Nc2cccc(-c3ccccc3)c2)cn1` [Compound 114, N-(1-benzylpiperidin-4-yl)-5-(biphenyl-3-ylamino)picolinamide], for which the EC50 is 1000 to 5000 nM.

Turning to `CC(=O)Nc1ccc(OC2CCN(C(=O)c3ccc(C(=O)NC4CCN(Cc5ccc(F)cc5)CC4)cn3)CC2)cc1` [Compound 406, 6-(4-(4-acetamidophenoxy)piperidine-1-carbonyl)-N-(1-(4-fluorobenzyl)piperidin-4-yl)nicotinamide], the EC50 was in the range of 500 to 1000 nM.

For the compound `CS(=O)(=O)c1ccc(OC2CCN(C(=O)c3ccc(C(=O)NC4CCC(Oc5ccc(C#N)cc5)CC4)cn3)CC2)cc1` (stereo not shown) [Compound 398, N-(4-(4-cyanophenoxy)cyclohexyl)-6-(4-(4-(methylsulfonyl)phenoxy)piperidine-1-carbonyl)nicotinamide], the EC50 was less than 500 nM.

Regarding `CN1CCN(c2ccc(C(=O)C3CCN(C(=O)c4ccc(C(=O)NC5CCN(Cc6ccc(C#N)cc6)CC5)nc4)CC3)cc2)CC1` [Compound 380, N-(1-(4-cyanobenzyl)piperidin-4-yl)-5-(4-(4-(4-methylpiperazin-1-yl)benzoyl)piperidine-1-carbonyl)picolinamide], the 50% effective concentration (EC50) is less than 500 nM.

For the compound `CC(=O)c1ccc(OC2CCN(C(=O)c3ccc(C(=O)Nc4ccc(Oc5ccc(F)cc5)nc4)cn3)CC2)cc1` [Compound 395, 6-(4-(4-acetylphenoxy)piperidine-1-carbonyl)-N-(6-(4-fluorophenoxy)pyridin-3-yl)nicotinamide], the EC50 was less than 500 nM.

On to `N#Cc1ccc(CN2CCC(C(=O)Nc3ccc(C(=O)N4CCC(Oc5ccc(F)cc5)CC4)cn3)CC2)cc1` [Compound 173, 1-(4-cyanobenzyl)-N-(5-(4-(4-fluorophenoxy)piperidine-1-carbonyl)pyridin-2-yl)piperidine-4-carboxamide], for which the EC50 is less than 500 nM.

On to `N#Cc1ccc(CN2CC[C@H](NC(=O)c3ccc(C(=O)N4CCN(Cc5ccc(F)cc5)CC4)cn3)C2)cc1` [Compound 123, (S)-N-(1-(4-cyanobenzyl)pyrrolidin-3-yl)-5-(4-(4-fluorobenzyl)piperazine-1-carbonyl)picolinamide], for which the EC50 is less than 500 nM.

These data come from US9663496B2, “AMPK-activating heterocyclic compounds and methods for using the same” (Rigel Pharmaceuticals, Inc., priority 2010, dated 2017).
